Experimental data: ChEMBL document CHEMBL3885861, “Open TG-GATES”

Organism: Rattus norvegicus
Assay: Open TG-GATES - Regimen: Single
Assay type: toxicity, organism-based, Sprague-Dawley
Parameters: regimen Single, gender Male, age 6 weeks
Details: in vivo, po, 45 mg/kg, route gavage, dose level Low; for APTT / Bas / Eos / Fbg / Hb / Ht / Lym / MCH / MCHC / MCV / Mono / Neu / PT / Plat / RBC / Ret / WBC: tissue Blood; for KIDNEY_L / KIDNEY_R / KIDNEY_TOTAL: tissue Kidney; for LIVER: tissue Liver; for ALP / ALT / AST / BUN / CRE / DBIL / GLC / K / LDH / Na / PL / RALB / TBIL / TC / TG / TP / gamma-GTP: tissue Plasma

CC(CCc1ccccc1)NCC(O)c1ccc(O)c(C(N)=O)c1 (stereo unspecified) [LABETALOL]
TERMINAL_BW (3 h): 214.4 g
APTT (3 h): 16 s
Bas (3 h): 0%
Eos (3 h): 1%
Fbg (3 h): 265.8 mg/dL
Hb (3 h): 13 g/dL
Ht (3 h): 38.2%
Lym (3 h): 78.2%
MCH (3 h): 22.2 pg
MCHC (3 h): 33.9%
MCV (3 h): 65.5 fL
Mono (3 h): 3.2%
Neu (3 h): 16.6%
PT (3 h): 13.1 s
Plat (3 h): 103.6 x10_4/uL
RBC (3 h): 584 x10_4/ul
Ret (3 h): 8.6%
WBC (3 h): 63.4 x10_2/uL
KIDNEY_L (3 h): 0.9 g
KIDNEY_R (3 h): 0.9 g
KIDNEY_TOTAL (3 h): 1.8 g
LIVER (3 h): 9.7 g
ALP (3 h): 1420.4 IU/L
ALT (3 h): 42.2 IU/L
AST (3 h): 70.8 IU/L
BUN (3 h): 11.6 mg/dL
CRE (3 h): 0.2 mg/dL
DBIL (3 h): 0.014 mg/dL
GLC (3 h): 190.2 mg/dL
K (3 h): 3.8 meq/L
LDH (3 h): 56.2 IU/L
Na (3 h): 143 meq/L
PL (3 h): 147.4 mg/dL
RALB (3 h): 2.6 g/dL
TBIL (3 h): 0.044 mg/dL
TC (3 h): 83.6 mg/dL
TG (3 h): 60.4 mg/dL
TP (3 h): 5.4 g/dL
gamma-GTP (3 h): 1 IU/L
TERMINAL_BW (6 h): 214.9 g
APTT (6 h): 16.1 s
Bas (6 h): 0%
Eos (6 h): 1%
Fbg (6 h): 287.6 mg/dL
Hb (6 h): 12.8 g/dL
Ht (6 h): 37.8%
Lym (6 h): 75.6%
MCH (6 h): 21.4 pg
MCHC (6 h): 33.8%
MCV (6 h): 63.3 fL
Mono (6 h): 2.4%
Neu (6 h): 20.6%
PT (6 h): 13.1 s
Plat (6 h): 116.3 x10_4/uL
RBC (6 h): 596.4 x10_4/ul
Ret (6 h): 8.2%
WBC (6 h): 76.9 x10_2/uL
KIDNEY_L (6 h): 0.9 g
KIDNEY_R (6 h): 0.9 g
KIDNEY_TOTAL (6 h): 1.9 g
LIVER (6 h): 8.9 g
ALP (6 h): 1402 IU/L
ALT (6 h): 40.2 IU/L
AST (6 h): 73 IU/L
BUN (6 h): 9.6 mg/dL
CRE (6 h): 0.2 mg/dL
DBIL (6 h): 0.01 mg/dL
GLC (6 h): 180.4 mg/dL
K (6 h): 3.9 meq/L
LDH (6 h): 46 IU/L
Na (6 h): 142.8 meq/L
PL (6 h): 135.8 mg/dL
RALB (6 h): 2.5 g/dL
TBIL (6 h): 0.038 mg/dL
TC (6 h): 82.4 mg/dL
TG (6 h): 50.6 mg/dL
TP (6 h): 5.4 g/dL
gamma-GTP (6 h): 1.2 IU/L
TERMINAL_BW (9 h): 212.6 g
APTT (9 h): 16.8 s
Bas (9 h): 0%
Eos (9 h): 1%
Fbg (9 h): 293.4 mg/dL
Hb (9 h): 12.9 g/dL
Ht (9 h): 38.5%
Lym (9 h): 79.4%
MCH (9 h): 21.3 pg
MCHC (9 h): 33.7%
MCV (9 h): 63.3 fL
Mono (9 h): 1.8%
Neu (9 h): 17.2%
PT (9 h): 13.3 s
Plat (9 h): 106.4 x10_4/uL
RBC (9 h): 608.2 x10_4/ul
Ret (9 h): 8.2%
WBC (9 h): 70.4 x10_2/uL
KIDNEY_L (9 h): 0.9 g
KIDNEY_R (9 h): 0.9 g
KIDNEY_TOTAL (9 h): 1.9 g
LIVER (9 h): 8.1 g
ALP (9 h): 1452.8 IU/L
ALT (9 h): 43.6 IU/L
AST (9 h): 69 IU/L
BUN (9 h): 9.6 mg/dL
CRE (9 h): 0.2 mg/dL
DBIL (9 h): 0.008 mg/dL
GLC (9 h): 184.2 mg/dL
K (9 h): 3.9 meq/L
LDH (9 h): 46.2 IU/L
Na (9 h): 143.6 meq/L
PL (9 h): 136 mg/dL
RALB (9 h): 2.5 g/dL
TBIL (9 h): 0.038 mg/dL
TC (9 h): 81.8 mg/dL
TG (9 h): 39.6 mg/dL
TP (9 h): 5.3 g/dL
gamma-GTP (9 h): 1 IU/L
TERMINAL_BW (24 h): 226.1 g
APTT (24 h): 16.2 s
Bas (24 h): 0%
Eos (24 h): 1.2%
Fbg (24 h): 284.4 mg/dL
Hb (24 h): 13.5 g/dL
Ht (24 h): 39.1%
Lym (24 h): 78%
MCH (24 h): 21.9 pg
MCHC (24 h): 34.6%
MCV (24 h): 63.3 fL
Mono (24 h): 2.8%
Neu (24 h): 17.6%
PT (24 h): 12.8 s
Plat (24 h): 112.9 x10_4/uL
RBC (24 h): 618.6 x10_4/ul
Ret (24 h): 8.2%
WBC (24 h): 80.8 x10_2/uL
KIDNEY_L (24 h): 1 g
KIDNEY_R (24 h): 1 g
KIDNEY_TOTAL (24 h): 1.9 g
LIVER (24 h): 10.4 g
ALP (24 h): 1933.8 IU/L
ALT (24 h): 53.2 IU/L
AST (24 h): 82.2 IU/L
BUN (24 h): 14.8 mg/dL
CRE (24 h): 0.2 mg/dL
DBIL (24 h): 0.018 mg/dL
GLC (24 h): 181.8 mg/dL
K (24 h): 4.1 meq/L
LDH (24 h): 87.4 IU/L
Na (24 h): 142 meq/L
PL (24 h): 150.8 mg/dL
RALB (24 h): 2.7 g/dL
TBIL (24 h): 0.032 mg/dL
TC (24 h): 81.8 mg/dL
TG (24 h): 119 mg/dL
TP (24 h): 5.7 g/dL
gamma-GTP (24 h): 1.2 IU/L
